# Assay results from US5821262A, “Hydroxamic acid derivatives as inhibitors of cytokine production” (British Biotech Pharmaceuticals Limited, priority 1993, dated 1998).
# Key:
# collagenase = target: T1, collagenase (Homo sapiens, UniProt P03956); experiment: collagenase inhibition, 14C collagen, procedure of Cawston and Barrett; type: biochemical; settings: 37°, 16 hours, pH 7.5
# T1 sequence (P03956 100-469): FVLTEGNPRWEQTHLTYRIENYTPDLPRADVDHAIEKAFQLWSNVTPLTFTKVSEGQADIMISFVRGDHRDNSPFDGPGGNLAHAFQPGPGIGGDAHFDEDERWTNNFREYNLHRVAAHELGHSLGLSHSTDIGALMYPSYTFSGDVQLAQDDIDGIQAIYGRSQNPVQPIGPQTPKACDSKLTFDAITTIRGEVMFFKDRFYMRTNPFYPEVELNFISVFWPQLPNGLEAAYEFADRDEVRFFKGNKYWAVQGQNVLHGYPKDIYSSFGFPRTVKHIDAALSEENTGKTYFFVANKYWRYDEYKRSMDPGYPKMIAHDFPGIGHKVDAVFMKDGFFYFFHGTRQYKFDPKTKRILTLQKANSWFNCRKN
# Text: The collagen was acetylated ^14 C collagen prepared by the method of Cawston and Murphy, (Methods in Enzymology, 80, 711, 1981), hereby incorporated by reference. The samples were centrifuged to sediment undigested collagen, and an aliquot of the radioactive supernatant removed for assay on a scintillation counter as a measure of hydrolysis.
# stromelysin = stromelysin (Homo sapiens, UniProt P08254); experiment: stromelysin inhibition, 14C acetylated casein, procedure of Cawston et al; type: biochemical; settings: 37°, 16 hours, pH 7.5
# Experimental: The potency of compounds of Examples 1 to 6 to act as inhibitors of stromelysin was determined by the procedure of Cawston et al, (Biochem. J., 195, 159-165, 1981), hereby incorporated by reference, whereby a 1 mM solution of the compound being tested, or a dilution thereof, was incubated at 37° for 16 hours with stromelysin and ^14 C acetylate casein (buffered with 25 mM Hepes, pH 7.5 containing 5 mM CaCl2, 0.05% Brij 35 and 0.02% NaN3). The casein was acetylated ^14 C casein prepared by the method of Cawston et al (ibid).
# TNF = experiment: inhibition of endotoxin (LPS) induced TNF production in vivo, serum TNF in anaesthetised rats; parameters: species or system male CD rats; settings: rat, 10 mg/kg intravenous 15 minutes prior to LPS 50 μg/kg, infusion maintained 2 hours
# Experimental: The compound of Example 1 was assessed for its ability to inhibit release of endotoxin induced TNF production in vivo.
# Male Male CD rats (Charles River, UK) weighing between 300 g-400 g were anaesthetised with an intra-peritoneal injection of a mixture of 62.5 mg·kg^-1 thiopental and 22.5 mg·kg^-1 sodium pentobarbitone (Thiopental, Sigma Chemical Co., UK; Sodium pentobarbitone (Sagatal), May and Baker., UK). The trachea was exposed and cannulated to allow spontaneous respiration through a patent airway. The left jugular vein was exposed and cannulated for the administration of LPS. The right femoral artery was exposed and cannulated for withdrawal of blood samples.
# Blood samples (1 ml) were removed just prior to bolus administration of either LPS (E. coli serotype 0111:b4, Difco Laboratories, USA) or saline (NaCL 0.9% w/v) and at intervals of 1 hour and 2 hours after LPS. Removed blood was replaced with equal amounts of saline.
# The peak of TNF release was at the 1 hour timepoint. […] levels were expressed in units/ml where 1 unit is the equivalent of 1 pg of mouse TNFα.
# Rat serum TNF levels were measured using a mouse TNFα reference standard. The commercial ELISA kits were from Genzyme.
# The compound of example 1 was administered intravenously to aneasthetised rats at a dose of 10 mg·kg^-1, 15 minutes prior to LPS administration. […]
# [1] = test system: TNFα release from human monocytic cell line U937; experiment: inhibition of PMA-stimulated TNFα release from U937 cells (ELISA); type: cell-based; settings: U-937, PMA 50 nM, 18 hours, 37° C., read-out: IC50, concentration which inhibits the release of TNFα by 50% relative to control culture
# Experimental: The ability of example compounds of the invention to inhibit the release of TNF was investigated. The assay is based on the ability of phorbol myristate acetate (PMA) to stimulate the release of TNF a from a human monocytic cell line, U937.
# U937 cells cultured in RPMI 1640 medium+5% foetal calf serum are centifuged at 1000×g for 5 minutes and then resuspended in medium at 2×10^6 /ml. 1 ml of cell suspension is aliquoted into individual wells of 24-well plates. Test compounds are dissolved in dimethyl sulphoxide (DMSO) at a stock concentration of 100 mM, then diluted to 50× the final required concentration with RPMI 1640 medium. 20 μl of the diluted compounds are added to U937 cells in duplicate wells. TNF a release is stimulated by addition of PMA to the cells at a final concentration of 50 nM. Appropriate control cultures are set up in duplicate. The plates are incubated for 18 hours at 37° C., 5% CO2, then centrifuged at 1000×g for 5 minutes. A specific ELISA for TNFα obtained from British Bio-technology Products Limited, Abingdon, England is used to measure TNFα levels in the culture supernatants
# The average concentration of test compound which inhibits the release of TNF a by 50% relative to the control culture was assessed.
# Sequence of stromelysin (P08254 100-477): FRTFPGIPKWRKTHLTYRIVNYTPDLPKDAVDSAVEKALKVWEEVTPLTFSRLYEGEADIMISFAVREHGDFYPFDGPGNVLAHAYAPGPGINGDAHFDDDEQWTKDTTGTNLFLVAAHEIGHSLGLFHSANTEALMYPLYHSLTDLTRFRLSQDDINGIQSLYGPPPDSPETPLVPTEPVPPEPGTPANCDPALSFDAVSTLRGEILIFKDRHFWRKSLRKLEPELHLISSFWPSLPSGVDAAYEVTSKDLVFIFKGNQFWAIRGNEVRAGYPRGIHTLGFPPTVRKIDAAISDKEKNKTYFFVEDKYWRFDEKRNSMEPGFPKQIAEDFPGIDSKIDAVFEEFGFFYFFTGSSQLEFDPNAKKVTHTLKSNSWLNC
IC50 (collagenase) [nM],IC50 (stromelysin) [nM],IC50 [1] [nM],SMILES,"reduction of LPS-induced release of TNF, 1 hour timepoint (TNF; 1 hour after LPS)","reduction of LPS-induced release of TNF, 2 hour timepoint (TNF; 2 hours after LPS)"
5,40,–,"CNC(=O)[C@@H](NC(=O)[C@H](CC(C)C)[C@H](CSc1ccc(O)cc1)C(=O)NO)[C@@H](C)OC(C)(C)C [Example 5, N^2-[4-(N-Hydroxyamino)-3S-(4-hydroxyphenylthiomethyl)-2R-isobutylsuccinyl]-O-tert-butyl-L-threonine-N^1-methylamide]",–,–
6,70,< 50000,"CNC(=O)CC[C@H](NC(=O)[C@H](CC(C)C)[C@H](CSc1ccc(O)cc1)C(=O)NO)C(=O)NC [Example 6, N^2-[4-(N-Hydroxyamino)-3S-(4-hydroxyphenylthiomethyl)-2R-isobutylsuccinyl]-L-glutamine-N^1,N^5-dimethylamide]",–,–

# Second part, the molecule before the results:
SMILES,IC50 (collagenase) [nM],IC50 (stromelysin) [nM],IC50 [1] [nM],"reduction of LPS-induced release of TNF, 1 hour timepoint (TNF; 1 hour after LPS)","reduction of LPS-induced release of TNF, 2 hour timepoint (TNF; 2 hours after LPS)"
"CNC(=O)[C@H](CCCCNC(C)=O)NC(=O)[C@H](CC(C)C)[C@H](CSc1ccc(O)cc1)C(=O)NO [Example 1, N^2-[4-(N-Hydroxyamino)-3S-(4-hydroxyphenylthiomethyl)-2R-isobutylsuccinyl]-N^6-acetyl-L-lysine-N^1-methylamide]",–,–,< 50000,more than 50%,more than 50%
"CNC(=O)[C@H](CCCCN(CSc1ccc(O)cc1)C(=O)OC(C)(C)C)NC(=O)[C@H](CC(C)C)[C@H](CSc1ccc(O)cc1)C(=O)NO [Example 3, N^2-[4-(N-Hydroxyamino)-3S-(4-hydroxyphenylthiomethyl)-2R-isobutylsuccinyl]-N^6-tert-butyloxycarbonyl-N^6-(4-hydroxyphenylthiomethyl)-L-lysine-N^1-methylamide]",30,50,< 50000,–,–
"CNC(=O)[C@H](CCCCNC(=O)OC(C)(C)C)NC(=O)[C@H](CC(C)C)[C@H](CSc1ccc(O)cc1)C(=O)NO [Example 2, N^2-[4-(N-Hydroxyamino)-3S-(4-hydroxyphenylthiomethyl)-2R-isobutylsuccinyl]-N^6-tert-butyloxycarbonyl-L-lysine-N^1-methylamide]",15,15,< 50000,–,–
"CNC(=O)[C@H](CCCCNC(=O)OC(C)(C)C)NC(=O)[C@H](CC(C)C)[C@H](CSc1cccs1)C(=O)NO [Example 4, N^2-[4-(N-Hydroxyamino)-3S-(2-thienythiomethyl)-2R-isobutylsuccinyl]-N^6-tert-butyloxycarbonyl-L-lysine-N^1-methylamide]",–,20,< 50000,–,–
